Values quoted from earlier work as cited in publication PMC8739290, “A phase 1b study of erlotinib and momelotinib for the treatment of EGFR-mutated, tyrosine kinase inhibitor-naive metastatic non-small cell lung cancer” (Cancer Chemotherapy and Pharmacology, 2021).

System: PC-9 and HCC827 models
Design: method as in PMID 32297743, doi:10.1158/7445.AM2017-4046
Conditions: AZD4205 with osimertinib, increased tumor regression, delayed regrowth, knockdown of pSTAT3; cited from earlier work

COc1nn(C)cc1Nc1nccc(-c2c[nH]c3c(NC(=O)[C@@H](C)N4CCN(C)CC4)cccc23)n1 [AZD4205, (2R)-N-[3-[2-[(3-Methoxy-1-methyl-pyrazol-4-yl)amino]pyrimidin-4-yl]-1H-indol-7-yl]-2-(4-methylpiperazin-1-yl)propenamide]
combination activity compared to each agent alone: synergistic activity
